Peptide text beside a SMILES is read from it.
Test system: Botrytis cinerea (B05.10)
Experiment: Resazurin antifungal assay of 180 alpha-factor peptide variants towards Botrytis (Example 2)
Format: cell-based
Set-up: key to active against Botrytis at 15 μM / active against Botrytis at 10 μM: Peptides that showed greater than 90% inhibition were considered active against Botrytis
Settings: for Inhibition at 50 μM / Inhibition at 100 μM / Inhibition at 10 μM / Inhibition at 20 μM / Inhibition at 15 μM: % inhibition of fungal growth, Botrytis conidia, resazurin; for Inhibition at 50 μM: peptide 50 μM; for Inhibition at 100 μM: peptide 100 μM; for Inhibition at 10 μM: peptide 10 μM; for Inhibition at 20 μM: peptide 20 μM
Outline: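 Resazurin viability read-out (570/620 nm fluorescence) after a 24 h, 20° C incubation of B05.10 conidia, 5000 per well, with peptide at final 10-100 μM. Growth inhibition (%) was derived by subtracting conidia-only fluorescence; four replicates per treatment.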

Compound	Inhibition at 50 μM [%]	Inhibition at 100 μM [%]	Inhibition at 10 μM [%]	Inhibition at 20 μM [%]	Inhibition at 15 μM (peptide 15 μM) [%]	active against Botrytis at 15 μM (peptide 15 μM)
CSCC[C@H](NC(=O)[C@@H]1CCCN1C(=O)[C@H](CCC(=O)O)NC(=O)CNC(=O)[C@@H]1CCCN1C(=O)[C@H](CCCCN)NC(=O)[C@H](CC(C)C)NC(=O)[C@H](CCCCN)NC(=O)[C@H](CC(C)C)NC(=O)[C@H](Cc1c[nH]c2ccccc12)NC(=O)[C@H](Cc1c[nH]cn1)NC(=O)[C@@H]1CCCN1)C(=O)N[C@@H](Cc1ccc(O)cc1)C(=O)O [compound 136] (H-PHWLKLKPGEPMY-OH; N-terminus and C-terminus assumed)	<90	<90	–	–	–	–
CSCC[C@H](NC(=O)[C@@H]1CCCN1C(=O)[C@H](CCC(N)=O)NC(=O)CNC(=O)[C@@H]1CCCN1C(=O)[C@H](CCCCN)NC(=O)[C@H](Cc1ccccc1)NC(=O)[C@@H](NC(=O)[C@H](CC(C)C)NC(=O)[C@H](CC(C)C)NC(=O)[C@H](Cc1c[nH]cn1)NC(=O)[C@@H](N)CCCCN)[C@@H](C)O)C(=O)N[C@@H](Cc1ccc(O)cc1)C(=O)O [compound 95] (H-KHLLTFKPGQPMY-OH; N-terminus and C-terminus assumed)	97.12	99.99	<90	<90	–	–
CC[C@H](C)[C@H](NC(=O)[C@H](Cc1c[nH]c2ccccc12)NC(=O)[C@H](CCCCN)NC(=O)[C@@H](N)CCCCN)C(=O)N[C@@H](CCC(N)=O)C(=O)N[C@@H](CC(C)C)C(=O)N[C@@H](CCCCN)C(=O)N1CCC[C@H]1C(=O)NCC(=O)N[C@@H](CCC(=O)O)C(=O)N1CCC[C@H]1C(=O)N[C@@H](CCSC)C(=O)N[C@@H](Cc1ccc(O)cc1)C(=O)O [compound 175] (H-KKWIQLKPGEPMY-OH; N-terminus and C-terminus assumed)	<90	<90	–	–	–	–
CSCC[C@H](NC(=O)CNC(=O)[C@H](CCC(N)=O)NC(=O)CNC(=O)[C@@H]1CCCN1C(=O)[C@H](CCCCN)NC(=O)[C@H](Cc1ccccc1)NC(=O)[C@H](CCC(=O)O)NC(=O)[C@H](CC(C)C)NC(=O)[C@H](CC(=O)O)NC(=O)[C@H](Cc1c[nH]cn1)NC(=O)[C@@H]1CCCN1)C(=O)N[C@@H](Cc1ccc(O)cc1)C(=O)O [compound 126] (H-PHDLEFKPGQGMY-OH; N-terminus and C-terminus assumed)	<90	<90	–	–	–	–
CSCC[C@H](NC(=O)[C@H](Cc1c[nH]cn1)NC(=O)[C@@H](N)CCCCN)C(=O)N[C@@H](CC(C)C)C(=O)N[C@@H](CCCNC(=N)N)C(=O)N[C@@H](Cc1ccccc1)C(=O)N[C@@H](CCCCN)C(=O)N1CCC[C@H]1C(=O)NCC(=O)N[C@@H](CCC(N)=O)C(=O)N1CCC[C@H]1C(=O)N[C@@H](CCSC)C(=O)N[C@@H](Cc1ccc(O)cc1)C(=O)O [compound 84] (H-KHMLRFKPGQPMY-OH; N-terminus and C-terminus assumed)	100	100	<90	97.08	<90	–
CC[C@H](C)[C@H](NC(=O)[C@H](Cc1c[nH]c2ccccc12)NC(=O)[C@H](Cc1c[nH]cn1)NC(=O)[C@@H](N)Cc1c[nH]c2ccccc12)C(=O)N[C@@H](CCC(N)=O)C(=O)N[C@@H](Cc1ccccc1)C(=O)N[C@@H](CCCCN)C(=O)N1CCC[C@H]1C(=O)NCC(=O)N[C@@H](CCC(N)=O)C(=O)N[C@@H](CO)C(=O)N[C@@H](CCSC)C(=O)N[C@@H](Cc1ccc(O)cc1)C(=O)O [compound 26] (H-WHWIQFKPGQSMY-OH; N-terminus and C-terminus assumed)	91.39	100	<90	<90	–	–
CSCC[C@H](NC(=O)[C@H](Cc1c[nH]cn1)NC(=O)[C@@H](N)Cc1c[nH]c2ccccc12)C(=O)N[C@@H](CC(C)C)C(=O)N[C@@H](CCC(=O)O)C(=O)N[C@@H](Cc1ccccc1)C(=O)N[C@@H](CCCCN)C(=O)N1CCC[C@H]1C(=O)NCC(=O)N[C@@H](CCC(N)=O)C(=O)N1CCC[C@H]1C(=O)N[C@@H](CCSC)C(=O)N[C@@H](Cc1ccc(O)cc1)C(=O)O [compound 36] (H-WHMLEFKPGQPMY-OH; N-terminus and C-terminus assumed)	<90	<90	–	–	–	–
CSCC[C@H](NC(=O)[C@@H]1CCCN1C(=O)[C@H](CCC(N)=O)NC(=O)CNC(=O)[C@H](Cc1ccc(O)cc1)NC(=O)[C@H](CC(N)=O)NC(=O)[C@H](CC(C)C)NC(=O)[C@H](CCCCN)NC(=O)[C@H](CC(C)C)NC(=O)[C@H](Cc1c[nH]c2ccccc12)NC(=O)[C@H](Cc1c[nH]cn1)NC(=O)[C@@H](N)Cc1c[nH]c2ccccc12)C(=O)N[C@@H](Cc1ccc(O)cc1)C(=O)O [compound 108] (H-WHWLKLNYGQPMY-OH; N-terminus and C-terminus assumed)	<90	100	<90	<90	–	–
CSCC[C@H](NC(=O)[C@@H]1CCCN1C(=O)[C@H](CCC(N)=O)NC(=O)CNC(=O)[C@@H]1CCCN1C(=O)[C@H](CCCCN)NC(=O)[C@H](Cc1ccccc1)NC(=O)[C@H](CCCNC(=N)N)NC(=O)[C@H](CC(C)C)NC(=O)[C@@H](NC(=O)[C@H](Cc1c[nH]cn1)NC(=O)[C@@H](N)CCCCN)C(C)C)C(=O)N[C@@H](Cc1ccc(O)cc1)C(=O)O [compound 12] (H-KHVLRFKPGQPMY-OH; N-terminus and C-terminus assumed)	100	100	<90	99.94	98.79	active
CSCC[C@H](NC(=O)[C@@H]1CCCN1C(=O)[C@H](CCC(N)=O)NC(=O)CNC(=O)[C@@H]1CCCN1C(=O)[C@H](Cc1c[nH]cn1)NC(=O)[C@H](CC(C)C)NC(=O)[C@H](CCC(N)=O)NC(=O)[C@@H](NC(=O)[C@H](CC(C)C)NC(=O)[C@H](Cc1c[nH]cn1)NC(=O)[C@@H](N)CCCCN)C(C)C)C(=O)N[C@@H](Cc1ccc(O)cc1)C(=O)O [compound 168] (H-KHLVQLHPGQPMY-OH; N-terminus and C-terminus assumed)	<90	<90	–	–	–	–
CSCC[C@H](NC(=O)[C@@H]1CCCN1C(=O)[C@H](CCC(N)=O)NC(=O)CNC(=O)[C@@H]1CCCN1C(=O)[C@H](CCCCN)NC(=O)[C@H](CC(C)C)NC(=O)[C@@H](NC(=O)[C@H](CC(C)C)NC(=O)[C@H](Cc1ccccc1)NC(=O)[C@H](Cc1c[nH]cn1)NC(=O)[C@@H](N)CCCCN)[C@@H](C)O)C(=O)N[C@@H](Cc1ccc(O)cc1)C(=O)O [compound 96] (H-KHFLTLKPGQPMY-OH; N-terminus and C-terminus assumed)	95.86	99.87	<90	<90	–	–
CC[C@H](C)[C@H](NC(=O)CNC(=O)[C@@H](N)CCCCN)C(=O)N[C@@H](CC(C)C)C(=O)N[C@H](C(=O)N[C@@H](CC(C)C)C(=O)N[C@@H](CCCCN)C(=O)N1CCC[C@H]1C(=O)NCC(=O)N[C@@H](CCC(N)=O)C(=O)N1CCC[C@H]1C(=O)N[C@@H](CCSC)C(=O)N[C@@H](Cc1ccc(O)cc1)C(=O)O)[C@@H](C)O [compound 153] (H-KGILTLKPGQPMY-OH; N-terminus and C-terminus assumed)	<90	<90	–	–	–	–
CSCC[C@H](NC(=O)[C@@H]1CCCN1C(=O)[C@H](CCC(N)=O)NC(=O)CNC(=O)[C@@H]1CCCN1C(=O)[C@H](CCCCN)NC(=O)[C@H](Cc1ccccc1)NC(=O)[C@H](CC(N)=O)NC(=O)[C@H](CC(C)C)NC(=O)[C@H](Cc1ccc(O)cc1)NC(=O)[C@H](CCCCN)NC(=O)[C@@H](N)Cc1c[nH]c2ccccc12)C(=O)N[C@@H](Cc1ccc(O)cc1)C(=O)O [compound 100] (H-WKYLNFKPGQPMY-OH; N-terminus and C-terminus assumed)	93.45	100	<90	<90	–	–
CC[C@H](C)[C@H](NC(=O)[C@H](Cc1c[nH]c2ccccc12)NC(=O)[C@H](Cc1c[nH]cn1)NC(=O)[C@@H](N)CCCCN)C(=O)N[C@H](C(=O)N[C@@H](CC(C)C)C(=O)N[C@@H](CCCCN)C(=O)N[C@@H](CO)C(=O)NCC(=O)N[C@@H](CCSC)C(=O)N1CCC[C@H]1C(=O)N[C@@H](CCSC)C(=O)N[C@@H](Cc1ccc(O)cc1)C(=O)O)[C@@H](C)O [compound 59] (H-KHWITLKSGMPMY-OH; N-terminus and C-terminus assumed)	100	100	<90	90.97	<90	–
CSCC[C@H](NC(=O)[C@@H]1CCCN1C(=O)[C@H](C)NC(=O)CNC(=O)[C@H](Cc1c[nH]c2ccccc12)NC(=O)[C@H](CCCCN)NC(=O)[C@H](CC(C)C)NC(=O)[C@@H](NC(=O)[C@@H](NC(=O)[C@H](Cc1c[nH]c2ccccc12)NC(=O)[C@H](Cc1c[nH]cn1)NC(=O)[C@@H](N)CCCCN)C(C)C)[C@@H](C)O)C(=O)N[C@@H](Cc1ccc(O)cc1)C(=O)O [compound 3] (H-KHWVTLKWGAPMY-OH; N-terminus and C-terminus assumed)	100	100	<90	100.61	<90	–
CSCC[C@H](NC(=O)[C@@H]1CCCN1C(=O)[C@H](CCC(N)=O)NC(=O)CNC(=O)[C@@H]1CCCN1C(=O)[C@H](Cc1ccc(O)cc1)NC(=O)[C@H](CC(C)C)NC(=O)[C@H](CCCCN)NC(=O)[C@H](CC(C)C)NC(=O)[C@H](Cc1c[nH]c2ccccc12)NC(=O)[C@H](CCC(=O)O)NC(=O)[C@@H]1CCCN1)C(=O)N[C@@H](Cc1ccc(O)cc1)C(=O)O [compound 49] (H-PEWLKLYPGQPMY-OH; N-terminus and C-terminus assumed)	<90	<90	–	–	–	–
